Test results reported in the supplement of paper PMC4862054.
“And” between values parts separate entries of the source, which are not always exact repeats. Identical values can stand only once.

What was measured:
Experiment in all cases: normalised viability (% of control), CellTiter-Blue; higher = more viable cells (about 100 = DMSO control)
Conditions in all cases: incubation time: 72 h
[1] = system: MFM-223
Procedure: (§1)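 DSRT, CellTiter-Blue viability, 72 h incubation. Signal is normalised to DMSO and benzethonium chloride controls. Value is the normalised response at dose 3.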

[2] = system: SK-BR-3
Procedure: as §1

[3] = system: MDA-MB-231
Procedure: as §1

[4] = system: MDA-MB-436
Procedure: as §1

[5] = system: HDQ-P1
Procedure: as §1

[6] = system: Hs578T
Procedure: as §1

[7] = system: MDA-MB-453
Procedure: as §1

[8] = system: MDA-MB-468
Procedure: as §1

[9] = system: BT-474
Procedure: as §1

[10] = system: CAL-85-1
How it was run: (§2)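 Each entry is normalised viability at a single listed concentration within a series. It comes from breast cancer cell lines incubated 72 h with compound in 384-well plates, then measured with CellTiter-Blue fluorescence at 560/590 nm. Every plate was normalised between vehicle (100) and a positive kill control (0).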

[11] = system: MFM-223; remark: listed apart in the source
How it was run: as §2

[12] = system: SK-BR-3; remark: listed apart in the source
How it was run: as §2

[13] = system: MDA-MB-231; remark: listed apart in the source
How it was run: as §2

[14] = system: HCC1937
How it was run: as §2

[15] = system: MDA-MB-436; remark: listed apart in the source
How it was run: as §2

[16] = system: CAL-51
How it was run: as §2

[17] = system: BT-549
How it was run: as §2

[18] = system: HDQ-P1; remark: listed apart in the source
How it was run: as §2

[19] = system: Hs578T; remark: listed apart in the source
How it was run: as §2

[20] = system: HCC1143
How it was run: as §2

[21] = system: CAL-120
How it was run: as §2

[22] = system: MDA-MB-453; remark: listed apart in the source
How it was run: as §2

[23] = system: CAL-148
How it was run: as §2

[24] = system: HCC1599
How it was run: as §2

[25] = system: MDA-MB-468; remark: listed apart in the source
How it was run: as §2

[26] = system: DU-4475
How it was run: as §2

[27] = system: BT-474; remark: listed apart in the source
How it was run: as §2

COc1ncc(-c2ccc3nccc(-c4ccnnc4)c3c2)cc1NS(=O)(=O)c1ccc(F)cc1F
Conditions	normalised viability [%]
[1], 10 nM	53.1
[2], 10 nM	32.7
[3], 10 nM	80
[4], 10 nM	83
[5], 1 nM	97.9
[6], 10 nM	76.8
[7], 1 nM	89.3
[8], 10 nM	86.2
[9], 10 nM	64.7
[10], 0.3 nM	89.5
[10], 3 nM	75.9
[10], 10 nM	73.2
[11], 1 nM	99.9
[11], 100 nM	21.3
[11], 1000 nM	14.6
[12], 1 nM	77.7
[12], 100 nM	14.2
[12], 1000 nM	9.4
[13], 1 nM	96.2
[13], 100 nM	41.2
[13], 1000 nM	23.7
[14], 1 nM	94
[14], 100 nM	47.2
[14], 1000 nM	32.5
[15], 1 nM	105
[15], 100 nM	34.2
[15], 1000 nM	22.8
[16], 0.3 nM	93.7
[16], 3 nM	75.3
[16], 10 nM	56.5
[17], 1 nM	88
[17], 100 nM	29.4
[17], 1000 nM	14.7
[18], 0.3 nM	95.3
[18], 3 nM	70.5
[18], 10 nM	51.8
[19], 1 nM	107
[19], 100 nM	33.5
[19], 1000 nM	9.34
[20], 1 nM	72.4
[20], 100 nM	35.4
[20], 1000 nM	16.5
[21], 1 nM	84.2
[21], 100 nM	28.9
[21], 1000 nM	16.1
[22], 0.3 nM	103
[22], 3 nM	67.2
[22], 10 nM	36.7
[23], 0.3 nM	88.2
[23], 3 nM	96.4
[23], 10 nM	85.4
[24], 1 nM	88
[24], 100 nM	34.5
[24], 1000 nM	29.3
[25], 1 nM	92.9
[25], 100 nM	34.3
[25], 1000 nM	7.54
[26], 0.3 nM	87.5
[26], 3 nM	94.4
[26], 10 nM	82.1
[27], 1 nM	110
[27], 100 nM	19.2
[27], 1000 nM	6.63

COc1cc(Nc2ncc(F)c(Nc3ccc4c(n3)NC(=O)C(C)(C)O4)n2)cc(OC)c1OC [R406]
Conditions	normalised viability [%]
[1], 100 nM	96.4
[2], 100 nM	95.7
[3], 100 nM	102
[4], 100 nM	96.1
[5], 10 nM	107
[6], 100 nM	112
[7], 10 nM	106
[8], 100 nM	92.3
[9], 100 nM	116
[10], 3 nM	93.8
[10], 30 nM	87.8
[10], 100 nM	97.5
[11], 10 nM	92.4
[11], 1000 nM	89.5
[11], 10000 nM	85.4
[12], 10 nM	104
[12], 1000 nM	98.3
[12], 10000 nM	112
[13], 10 nM	95.7
[13], 1000 nM	77.2
[13], 10000 nM	52.5
[14], 10 nM	105
[14], 1000 nM	98.2
[14], 10000 nM	86
[15], 10 nM	84.3
[15], 1000 nM	102
[15], 10000 nM	101
[16], 3 nM	107
[16], 30 nM	107
[16], 100 nM	107
[17], 10 nM	89.7
[17], 1000 nM	77.3
[17], 10000 nM	53
[18], 3 nM	111
[18], 30 nM	93.7
[18], 100 nM	99.5
[19], 10 nM	115
[19], 1000 nM	105
[19], 10000 nM	88.4
[20], 10 nM	81.2
[20], 1000 nM	83.5
[20], 10000 nM	84.4
[21], 10 nM	90.6
[21], 1000 nM	91.3
[21], 10000 nM	80.5
[22], 3 nM	119
[22], 30 nM	102
[22], 100 nM	108
[23], 3 nM	95.3
[23], 30 nM	100
[23], 100 nM	97.7
[24], 10 nM	105
[24], 1000 nM	112
[24], 10000 nM	104
[25], 10 nM	104
[25], 1000 nM	87.3
[25], 10000 nM	101
[26], 3 nM	96.4
[26], 30 nM	85.1
[26], 100 nM	91.5
[27], 10 nM	133
[27], 1000 nM	111
[27], 10000 nM	130

CS(=O)(=O)CCNCc1ccc(-c2ccc3ncnc(Nc4ccc(OCc5cccc(F)c5)c(Cl)c4)c3c2)o1 [Lapatinib]
Conditions	normalised viability
[1], 100 nM	94% and 92.9%
[2], 100 nM	34.6% and 32.9%
[4], 100 nM	95.6% and 116%
[5], 10 nM	102% and 124%
[7], 10 nM	95.8% and 83.7%
[8], 100 nM	86.8% and 97.8%
[9], 100 nM	51.4% and 56.8%
[10], 3 nM	97.7% and 91.7%
[10], 30 nM	90.3% and 92.4%
[10], 100 nM	94.6% and 91.4%
[11], 10 nM	92.8% and 95.8%
[11], 1000 nM	95.8% and 96.9%
[11], 10000 nM	49.5% and 66%
[12], 10 nM	78.8% and 92.4%
[12], 1000 nM	18.2% and 22.2%
[12], 10000 nM	6.7% and 8.97%
[13], 1000 nM	85.8% and 109%
[13], 10000 nM	52.9% and 52.4%
[14], 1000 nM	91.3% and 113%
[14], 10000 nM	35.8% and 53.3%
[15], 10 nM	92.8% and 106%
[15], 1000 nM	91.3% and 112%
[15], 10000 nM	22.6% and 43.3%
[16], 3 nM	122% and 101%
[16], 30 nM	117% and 97.8%
[16], 100 nM	112% and 102%
[17], 10 nM	74.6% and 99.6%
[17], 1000 nM	86.5% and 103%
[17], 10000 nM	14.1% and 20.7%
[18], 100 nM	87.1% and 110%
[19], 1000 nM	93.5% and 95.4%
[19], 10000 nM	24.9% and 33.1%
[20], 10 nM	70.7% and 83.8%
[20], 1000 nM	76.2% and 89%
[20], 10000 nM	71% and 82.7%
[21], 10 nM	92.4% and 99.8%
[21], 1000 nM	92% and 102%
[22], 3 nM	100% and 118%
[22], 30 nM	72.4% and 85.8%
[22], 100 nM	59.9% and 59%
[23], 3 nM	92.2% and 89.8%
[23], 30 nM	89.5% and 93.5%
[23], 100 nM	89.3% and 83.7%
[24], 10 nM	108% and 96.7%
[24], 10000 nM	63.5% and 83.8%
[25], 10 nM	100% and 105%
[25], 1000 nM	64.2% and 68.2%
[25], 10000 nM	11.8% and 16.3%
[26], 3 nM	104% and 85.5%
[26], 30 nM	97.9% and 96.2%
[26], 100 nM	95.9% and 91.3%
[27], 10 nM	97.6% and 106%
[27], 1000 nM	37.3% and 43.9%
[27], 10000 nM	8.89% and 18.7%

c1ccc(C2CN3CCSC3=N2)cc1 (stereo not drawn) [Tetramisole]
Conditions	normalised viability [%]
[1], 100 nM	92.3
[2], 100 nM	104
[3], 100 nM	101
[4], 100 nM	108
[5], 10 nM	122
[6], 100 nM	97.5
[7], 10 nM	98.1
[8], 100 nM	98.8
[9], 100 nM	109
[10], 3 nM	104
[10], 30 nM	92.8
[10], 100 nM	99.4
[11], 10 nM	101
[11], 1000 nM	96.4
[11], 10000 nM	90.3
[12], 10 nM	107
[12], 1000 nM	101
[12], 10000 nM	105
[13], 10 nM	96.5
[13], 1000 nM	91.7
[13], 10000 nM	104
[14], 10 nM	117
[14], 1000 nM	105
[14], 10000 nM	103
[15], 10 nM	110
[15], 1000 nM	111
[15], 10000 nM	113
[16], 3 nM	85.4
[16], 30 nM	92.1
[16], 100 nM	89.6
[17], 10 nM	105
[17], 1000 nM	85.6
[17], 10000 nM	89.1
[18], 3 nM	117
[18], 30 nM	116
[18], 100 nM	109
[19], 10 nM	90.2
[19], 1000 nM	95.5
[19], 10000 nM	107
[20], 10 nM	105
[20], 1000 nM	118
[20], 10000 nM	109
[21], 10 nM	110
[21], 1000 nM	112
[21], 10000 nM	105
[22], 3 nM	93.6
[22], 30 nM	104
[22], 100 nM	98.5
[23], 3 nM	103
[23], 30 nM	103
[23], 100 nM	125
[24], 10 nM	102
[24], 1000 nM	91.2
[24], 10000 nM	107
[25], 10 nM	101
[25], 1000 nM	106
[25], 10000 nM	120
[26], 3 nM	91.1
[26], 30 nM	99.9
[26], 100 nM	101
[27], 10 nM	111
[27], 1000 nM	137
[27], 10000 nM	107
